Results as given in patent US11976083B2, “Inhibitors of peptidylarginine deiminases” (Gilead Sciences, Inc., priority 2020, dated 2024).

Biological target: T1, human PAD4 (Homo sapiens, UniProt Q9UM07)
T1 construct: human PAD4 (NM_012387), A2-P663, was PCR amplified; His-SUMO (N, cleaved yes); made in house; host or cells: E. coli BL21(DE3)
Assay: In vitro PAD4 BAEE biochemical assay
Settings: BAEE substrate 3 mM, 5 nM PAD4, 2 mM calcium chloride; geometric mean of multiple experiments
Method in brief: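 Recombinant PAD4 (5 nM final) with 2 mM CaCl2 was preincubated with compound for 30 min at 25 °C in MOPS pH 7.6 buffer with DTT, then reacted with 3 mM BAEE for 2 h at 25 °C. Released ammonia was detected fluorimetrically with o-phthalaldehyde/DTT; IC50 from four-parameter fit, geometric mean of experiments.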

T1 sequence (Q9UM07 2-663): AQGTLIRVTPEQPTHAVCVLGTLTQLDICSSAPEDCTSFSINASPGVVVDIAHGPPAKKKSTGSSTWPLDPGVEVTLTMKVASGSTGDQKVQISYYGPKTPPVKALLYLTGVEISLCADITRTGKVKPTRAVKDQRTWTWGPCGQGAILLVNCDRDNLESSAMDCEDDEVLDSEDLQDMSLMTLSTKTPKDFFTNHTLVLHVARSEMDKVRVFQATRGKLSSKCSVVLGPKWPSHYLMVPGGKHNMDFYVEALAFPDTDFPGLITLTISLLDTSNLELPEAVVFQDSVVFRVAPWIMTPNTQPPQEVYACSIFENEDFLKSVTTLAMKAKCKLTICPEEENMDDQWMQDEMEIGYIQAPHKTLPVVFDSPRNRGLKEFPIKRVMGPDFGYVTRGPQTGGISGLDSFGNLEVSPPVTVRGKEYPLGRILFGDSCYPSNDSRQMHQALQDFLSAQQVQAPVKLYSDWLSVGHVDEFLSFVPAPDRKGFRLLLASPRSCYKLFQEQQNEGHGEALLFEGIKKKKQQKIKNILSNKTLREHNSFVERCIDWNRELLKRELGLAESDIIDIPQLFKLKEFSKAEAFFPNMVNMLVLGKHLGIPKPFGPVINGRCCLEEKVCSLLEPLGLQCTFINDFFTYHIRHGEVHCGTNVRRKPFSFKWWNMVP

Row | IC50 [nM] | SMILES
1 | 101 | COc1cc(C(=O)N2CCC[C@@H](N)C2)cc2nc(-c3cc4ccc5nc4n3CCCCCc3cnn(C)c3C(=O)N[C@@H]5C)n(C)c12 [Example 172, (2~{R})-16-[5-[(3~{R})-3-aminopiperidine-1-carbonyl]-7-methoxy-1-methyl-benzimidazol-2-yl]-2,6-dimethyl-3,6,7,15,21-pentazatetracyclo[13.5.2.0^{5,9}.0^{18,22}] docosa-1(21),5(9),7,16,18(22),19-hexaen-4-one]
2 | 241 | COc1cc(C(=O)N2CCC[C@@H](N)C2)cc2nc(-c3cc4ccc5nc4n3CCCCC[C@H]3C[C@@H]3C(=O)N[C@@H]5C)n(C)c12 [Example 158, (2~{R},5~{S},7~{S})-14-[5-[(3~{R})-3-aminopiperidine-1-carbonyl]-7-methoxy-1-methyl-benzimidazol-2-yl]-2-methyl-3,13,19-triazatetracyclo[11.5.2.0^{5,7}.0^{16,20}] icosa-1(19),14,16(20),17-tetraen-4-one]
3 | 28 | COc1cc(C(=O)N2C[C@H](N)[C@@H]3CC[C@H]2C3)cc2nc(-c3cc4ccc5nc4n3CCCCCc3cc(F)ccc3C(=O)N[C@@H]5C)n(C)c12 [Example 900, (2~{R})-17-[5-[(1~{S),4~{R}, 5~{R})-4-amino-2-azabicyclo [3.2.1]octane-2-carbonyl]-7-methoxy-1-methyl-benzimidazol-2-yl]-8-fluoro-2-methyl-3,16,22-triazatetracyclo[14.5.2.0^ {5,10}.0^{19,23}]tricosa-1(22),5(10),6,8,17,19(23),20-heptaen-4-one]
4 | 42 | C[C@H]1NC(=O)[C@@H]2C[C@H]2CCCCCn2c(-c3nc4cc(C(=O)N[C@H]5CNCC[C@@H]5F)c(F)cc4n3[C@H]3C[C@H]3C(F)F)cc3ccc1nc32 (single isomer, unassigned) [Example 412, 1-[(1~{S},2~{R})-2-(difluoromethyl)cyclopropyl]-6-fluoro-~ {N}-[(3~{S),4~{S})-4-fluoro-3-piperidyl]-2-[(2~{R},5~{R},7~{R})-2-methyl-4-oxo-3,13,19-triazatetracyclo[11.5.2.0^{5,7}.0^{16,20}]icosa-1(19),14,16(20),17-tetraen-14-yl]benzimidazole-5-carboxamide]
5 | 51 | C[C@H]1NC(=O)c2ccccc2CCCCCn2c(-c3nc4cc(C(=O)N[C@H]5CNCC[C@@H]5F)c(F)cc4n3C3CC3)cc3ccc1nc32 [Example 347, 1-cyclopropyl-6-fluoro-~{N}-[(3~{S},4~{S})-4-fluoro-3-piperidyl]-2-[(2~{R})-2-methyl-4-oxo-3,16,22-triazatetracyclo[14.5.2.0^{5,10}.0^{19,23}]tricosa-1(22),5,7,9,17,19(23),20-heptaen-17-yl]benzimidazole-5-carboxamide]
6 | 47 | C[C@H]1NC(=O)[C@@H]2C[C@H]2CCCC(F)(F)Cn2c(-c3nc4cc(C(=O)N5C[C@H](N)[C@@H]6CC[C@H]5C6)cc(F)c4n3[C@H]3C[C@@H]3F)cc3ccc1nc32 [Example 479, (2~{R},5~{R},7~{R})-14-[5-[(1~{S},4~{R},5~{R})-4-amino-2-azabicyclo[3.2.1]octane-2-carbonyl]-7-fluoro-1-[(1~{S},2~{S})-2-fluorocyclopropyl]benzimidazol-2-yl]-11,11-difluoro-2-methyl-3,13,19-triazatetracyclo[11.5.2.0^{5,7}.0^{16,20}] icosa-1(19),14,16(20),17-tetraen-4-one]
7 | 55 | COc1cc(C(=O)N2C[C@H](N)[C@@H]3CC[C@H]2C3)cc2nc(-c3cc4ccc5nc4n3CCCCCc3c(ccc(F)c3F)C(=O)N[C@@H]5C)n(C)c12 [Example 906, (2~{R})-17-[5-[(1~{S},4~{R}, 5~{R})-4-amino-2-azabicyclo [3.2.1]octane-2-carbonyl]-7-methoxy-1-methyl-benzimidazol-2-yl]-8,9-difluoro-2-methyl-3,16,22-triazatetracyclo [14.5.2.0^{5,10).0^{19,23}] tricosa-1(22),5(10),6,8,17, 19(23),20-heptaen-4-one]
